Source: a melting point compilation (Tetko et al.; mined from patent text by program, amines drawn as free bases though some values may be those of a salt)

SMILES	melting point
COc1ccc(C(=C/C=C/C(=O)O)c2ccc(OC)cc2)cc1	187 to 189 °C
COCCOc1ccc2cc3ccccc3cc2c1	131 to 134 °C
CN(C)CCSc1ccc2ccc(N)nc2n1	174 °C
O=C1CCC(c2ccc3[nH]c(-c4ccccc4)cc3c2)=NN1	270 to 275 °C
CNc1nc(C)c(C)cc1NC(=O)N1CCN(c2cc(C)cc(C)c2)CC1	160 to 162 °C
CCOC(=O)C1CCC(CS(=O)(=O)c2ccc(Oc3ccc(OC(F)(F)F)cc3)cc2)(N(O)C=O)CC1 (configuration not stated)	150 to 151 °C
Cc1cc(CCNc2ncnc3c(F)ccc(F)c23)ccc1Oc1cc(C(F)(F)F)ccn1	108 to 110 °C
COC=C(C(=O)OC)c1ccccc1	37 to 38 °C
Cc1nc2ccsc2c(=O)n1-c1ccccc1Cl	118 to 121 °C
CCN(CC)C(=O)[C@H]1C[C@H](C(=O)OC(C)(C)C)N(C(=O)CNC(=O)Nc2cccc(C(=O)O)c2)[C@@H]1c1ccccc1F (racemic)	150 °C
COc1ccc(C2CCC(=O)CC2=O)cc1 (configuration not stated)	150 to 151 °C
COc1ccc(Cl)cc1C(=O)N(CCCC(=O)O)C(c1ccccc1)c1ccccc1	176 to 178 °C
c1ccc(-c2ccc(-c3nc(COc4ccc(CCCn5ccnc5)cc4)co3)o2)cc1	130 to 131 °C
CNc1nc(Cl)c(SC)c(N2CCN(c3ccccc3)CC2)n1	163 to 164 °C
N#CN=C(NCCSCc1ncccc1Br)NCCSCc1ncccc1Br	118 to 119 °C
CCC(=O)N(C(=O)CC)c1c(I)cc(Br)cc1S(=O)(=O)Cl	127 to 132 °C
CSc1cc(C)nc(SC)c1NC(=O)CCCCCCCSc1nc2ccccc2o1	119 to 122 °C
COc1ccc(C2OCCN2CCNc2ccc(NCCN3CCOC3c3ccc(OC)cc3OC)c3c2C(=O)c2c(O)ccc(O)c2C3=O)c(OC)c1 (configuration not stated)	181 to 185 °C
COc1ccc(N2CCN(c3ccc(F)cc3)CC2)c(-c2ccc(N(C)C)cc2)n1	168 to 169 °C
Cc1cc(CCCCCOc2c(C)cc(-c3nnn(CCO)n3)cc2C)on1	69 to 70 °C
O=C(N[C@@H](Cc1ccc(C(F)(F)F)cc1)[C@H](O)c1ccncc1)c1ccc(F)c2ccccc12	239 to 243 °C
C[C@H]1CCCC(C)(C)[C@@H]1[C@H](O)c1ccc(C#N)c(C(F)(F)F)c1	118 to 119 °C
O=C1c2ccccc2C(=O)c2c(NCCc3ccc(O)cc3)ccc(NCCc3ccc(O)cc3)c21	240 to 242 °C

SMILES	melting point
CC(C)(C)OC(=O)NC1CCCCCC=CC2CC2(C(=O)NS(=O)(=O)C2CC2)NC(=O)C2CC(OC(=O)c3cccc(C#N)c3)CN2C1=O (configuration not stated)	151 to 153 °C
COCC(=O)NCC1CCC(Nc2nc3c(s2)CCCc2ccc(F)cc2-3)CC1 (configuration not stated)	63 to 65 °C
O=C(Cn1c(-c2ccc(F)cc2)ncc(NC(=O)OCc2ccccc2)c1=O)N[C@@H](Cc1ccccc1)C(=O)C(F)(F)C(=O)NCc1ccccc1	185 to 186 °C
Cc1cc(Cl)cc2c(=O)oc(-c3cc(Br)nn3-c3ncccc3Cl)nc12	203 to 205 °C
Nc1cc(-n2cc(C(=O)O)c(=O)c3cc(F)c(F)c(Cl)c32)c(Cl)cc1F	237 to 242 °C
C=CCOc1ccc2cc(S(N)(=O)=O)sc2c1	101 to 102 °C
Cc1cccc2c1nc(-c1c(F)cccc1F)n2S(=O)(=O)c1ccccc1	134 to 135 °C
NC1CCc2ccccc2C1NC(=O)OCc1ccccc1 (configuration not stated)	102 to 145 °C
NC(=O)NC(=O)c1ccccc1	175 °C
CC(=O)c1cccc(Oc2ncccc2NC(=O)Cc2ccc(C(C)(C)O)cc2)c1	85 to 87 °C
COC(=O)c1cc2c(Cl)cc(C(=O)OC)c(Cl)c2c(Cl)c1Cl	140 to 142 °C
O=C(O)c1cc(-c2ccc3c(c2)CCO3)nn(Cc2ccc(F)cc2)c1=O	215 to 218 °C
Cc1c2c(cc3c(-c4ccccc4F)noc13)CC(C(=O)O)O2 (configuration not stated)	188 to 189 °C
CC(NC(=O)c1cc(Cl)ccc1NC(=O)c1cc(Br)nn1-c1ncccc1Cl)C1CC1 (configuration not stated)	231 to 233 °C
OC1CCCc2nc3ccccc3c(NCc3ccccc3C(F)(F)F)c21 (configuration not stated)	158 to 160 °C
Nc1ncnc2c1ncn2Cc1oc2ccccc2c(=O)c1-c1cccc(F)c1	224 to 227 °C
COc1ccc(Cl)c(Oc2c(C)nc(-c3ncccn3)nc2Cl)c1	110 °C
Cc1nc2ccccc2n1Cc1ccc(C(=O)O)cc1	300 °C
C=C1c2ccccc2CC(N)c2ccccc21 (configuration not stated)	84.5 to 86.5 °C
CC(C)NC(=S)n1ccc2cc(Cl)ccc21	135 °C
CC(C)(C)c1cc(SCCOC(=O)c2cc(C(C)(C)C)c(O)c(C(C)(C)C)c2)cc(C(C)(C)C)c1O	136 to 139 °C
O=S(=O)(Nc1cc(Cl)c(Oc2nc3ccc(Cl)cc3s2)c(Cl)c1)c1ccc(C(F)(F)F)cc1Cl	82 to 84 °C
COC(=O)C(=O)c1cn2c3c(cccc13)C(OC(C)=O)CC2 (configuration not stated)	165 to 168 °C

SMILES	melting point
O=C(CC1COC1)N[C@H]1CC[C@H](CCN2CCN(c3nccc4c3OCC4)CC2)CC1	175 °C
Cc1cc(CSCCC(=C(N)NCCc2cccc(O)c2)[N+](=O)[O-])sc1CN(C)C	114 to 115 °C
COc1cc(NC(=O)C(C#N)=CNc2ccc(OC)c(I)c2)c(Cl)cc1Cl	289 to 290 °C
Cn1cc(CC(SSC(Cc2cn(C)c3ccccc23)C(=O)O)C(=O)O)c2ccccc21 (configuration not stated)	158 to 160 °C
CC(F)=C1CCC2C3CC=C4CC(O[Si](C)(C)C(C)(C)C)CCC4(C)C3CCC12C (configuration not stated)	128 to 130 °C
COc1cc(C2CCN(C(=O)CN(C)C)CC2)ccc1Nc1ncc2ccc(-c3ccccc3N(C)S(C)(=O)=O)n2n1	99 to 110 °C
N#Cc1c(CF)nn(-c2c(Cl)cc(C(F)(F)F)cc2Cl)c1N	139 to 141 °C
O=C(O)c1ncc(OCc2ccccc2)c(OCc2ccccc2)c1Br	155 to 157 °C
COc1ccccc1[C@H]1CC[C@@H](c2ccccc2)N1C(=O)CNC(=O)Nc1cccc(CC(=O)O)c1 (racemic)	140 °C
CN(C)c1ccc(/C=C/c2c(F)ccc(F)c2F)cc1	91 to 92 °C
COc1cc2c(cc1Nc1ncc(Cl)c(Nc3ccccc3OCC#N)n1)CCN(CC(=O)N(C)C)CC2	77 to 93 °C
COC(=O)OCC1OC(n2cc(C)c(=O)[nH]c2=O)CC1OS(C)(=O)=O (configuration not stated)	70 to 72 °C
O=C(NN1CCCCC1)c1cc(Oc2c(F)cc(C(F)(F)F)cc2Cl)ccc1[N+](=O)[O-]	65 to 68 °C
CCNC(=O)n1nc(Oc2c(Cl)cc(C(F)(F)F)cc2Cl)cc1-c1ccc(Cl)cc1	88 to 89 °C
FC(F)(F)c1cc2c(cc1Cl)C(Cl)Cc1ccccc1S2 (configuration not stated)	100 to 102 °C
CC(=O)N[C@H](CC(N)=O)C(=O)Nc1ccc(-c2ccc(C(=O)O)c(=O)[nH]2)cc1	265 to 266 °C
CCCCNCC(O)COc1ccc(-c2nc(C(F)(F)F)c[nH]2)cc1 (configuration not stated)	151 to 154 °C
CCOC(=O)c1cc(C(=O)OCC)cc([N+](=O)[O-])c1	83.5 °C
CCCC1(C(=O)O)c2ccccc2-c2ccccc21	120 to 122 °C
COc1ccc(F)c(C(N)=O)c1	122 to 124 °C
Cc1ccc2c(c1)c1c(n2Cc2ccccc2)CCCC1C(=O)O (configuration not stated)	200 to 208 °C
